Test results reported in patent publication US8178506B2, “Oligomeric compounds and compositions for use in modulation of small non-coding RNAs” (Regulus Therapeutics Inc., priority 2003, dated 2012).
In the oligonucleotide strings, read from the 5' end, every base follows the letter of its sugar. An asterisk marks phosphorothioate; unmarked linkages are phosphodiester. Other units and linkages are bracketed, terminal groups are in braces. A string of capitals states the bases alone. e = 2'-O-(2-methoxyethyl) (MOE); [5mC] = 5-methylcytosine; d = 2'-deoxy (DNA)

How the values were obtained:
mir-30a pri-miRNA = assay: mir-30a luciferase reporter (pGL3C-M30-4X) assay in 293T cells; type: cell-based, human; conditions: 150 nM oligomeric compound, then mir-30a pri-miRNA mimic 200 nM, pGL3C-M30-4X normalized to pRL-CMV
From the text: In one embodiment of the invention, oligomeric compounds targeting the hairpin structure of mir-30a pri-miRNA were designed and tested for their effects on miRNA signaling in 293T cells (American Type Culture Collection (Manassas, Va.)).
A synthetic DNA fragment comprised of four tandem repeats of the target site for mir-30a was cloned into the vector pGL3-C (purchased from Promega Corp., Madison Wis.) at the unique XbaI site (pGL3C-M30-4X). This places the target site in the 3′UTR of the luciferase reporter vector. An oligomeric compound mimicking the mir-30a pri-miRNA ([…] […], herein incorporated as SEQ ID NO: 1749) was in vitro transcribed using T7 RNA polymerase and a DNA template produced by PCR (the T7 promoter is shown in bold).
On the day prior to the experiment 24-well plates were seeded with 293T cells at 50% confluency. The following morning cells were treated with oligomeric compounds targeted to the mir-30a pri-miRNA mimic. All of the compounds are 20 nucleobases in length having either a phosphorothioate backbone throughout (PS) or a phosphodiester backbone throughout (PO). […] All cytidine residues are 5-methylcytidines. The remaining compounds in the table have 2′-methoxyethoxy (MOE) nucleotides throughout with either a phosphorothioate (PS) or phosphodiester (PO) internucleoside linkages.
Cells were washed once with PBS then oligomeric compounds were added to triplicate wells at 150 nM in OPTI-MEM™ media and 4.5 μl/ml LIPOFECTIN™ reagent (Invitrogen Corporation, Carlsbad, Calif.). After 3 hours, the media was removed, and the cells were treated with the mir-30a pri-miRNA mimic at 200 nM in OPTI-MEM™ with 6 μl/ml LIPOFECTIN™ reagent. After 3 hours the media was removed from the cells. The reporter plasmid, pGL3C-M30-4X, was then transfected using SuperFect reagent. 20 μg of pGL3C-M30-4X and 2 μg of pRL-CMV, a plasmid expressing Renilla luciferase, were suspended in 600 μL of serum-free DMEM to which 120 μl of Superfect was added. After a 5 minute incubation, 6 mls of DMEM+10% FCS was added. 125 μL of the plasmid/SuperFect suspension was added to each well. After a 2 hour incubation cells were washed and fresh growth media added. Cells were incubated overnight.
The following morning the media was removed and the cells were lysed in 120 μL passive lysis buffer (PLB; Promega). 40 μL of the lysate was then assayed for Photinus (PL) and Renilla (RL) luciferases using a Dual Luciferase Assay kit (Promega) according to the manufacturer's protocol. The results below are given as percent pGL3C-M30-4× expression (PL) normalized to pRL-CMV expression (RL). The 20-nucleobase oligonucleotide random-mer ISIS Number 29848 was used as a negative control.

HepG2 cells = assay: Insulin signaling assay in HepG2 cells, marker genes taken together; type: cell-based, human; conditions: for expression of the IGFBP-1, PEPCK-c and follistatin marker genes / mRNA levels of the IGFBP-1 and follistatin genes: HepG2, 1 nM insulin; for expression of the IGFBP-1, PEPCK-c and follistatin marker genes: 100 nM
[1] = system: preadipocytes / differentiating adipocytes; assay: Adipocyte differentiation assay, markers taken together; type: cell-based, human
HuVECs = assay: Endothelial tube formation assay in HuVECs; conditions: 75 nM
Description: In some embodiments, HUVECs are used to measure the effects of oligomeric compounds of the invention on endothelial tube formation activity. The tube formation assay is performed using an in vitro Angiogenesis Assay Kit (Chemicon International, Temecula, Calif.).
Untreated control cells receive LIPOFECTIN™ only.
Approximately fifty hours after transfection, cells are transferred to 96-well plates coated with ECMatrix™ (Chemicon International). Under these conditions, untreated HUVECs form tube-like structures. After an overnight incubation at 37° C., treated and untreated cells are inspected by light microscopy. Tube formation in cells treated with oligomeric compounds is compared to that in untreated control cells. Individual wells are assigned discrete scores from 1 to 5 depending on the extent of tube formation. A score of 1 refers to a well with no tube formation while a score of 5 is given to wells where all cells are forming an extensive tubular network.
In one embodiment, primary human umbilical vein endothelial cells (HuVECs) were used to measure the effects of oligomeric compounds targeted to miRNAs on tube formation activity. HuVECs were routinely cultured in EBM (Clonetics Corporation, Walkersville, Md.) supplemented with SingleQuots supplements (Clonetics Corporation, Walkersville, Md.). […] HuVECs are plated at 3000 cells/well in 96-well plates. One day later, cells are transfected with oligomeric compounds. The tube formation assay is performed using an in vitro Angiogenesis Assay Kit (Chemicon International, Temecula, Calif.).
ISIS 29248 and ISIS 196103 are chimeric 5-10-52′-MOE gapmer oligonucleotides. […] All cytidine residues are 5-methylcytidines. ISIS 342672 (SEQ ID NO: 789) contains 13 mismatches with respect to the mature mir-143 miRNA, and was also used as a negative control. ISIS 342672 is a uniform 2′-MOE phosphorothioate oligomeric compound 22 nucleotides in length. All cytidine residues are 5-methylcytidines.
Oligomeric compound was mixed with LIPOFECTIN™ (Invitrogen Life Technologies, Carlsbad, Calif.) in OPTI-MEM™ (Invitrogen Life Technologies, Carlsbad, Calif.) to achieve a final concentration of 75 nM of oligomeric compound and 2.25 μg/mL LIPOFECTIN™. Before adding to cells, the oligomeric compound, LIPOFECTIN™ and OPTI-MEM™ were mixed thoroughly and incubated for 0.5 hrs. Untreated control cells received LIPOFECTIN™ only. […] Compounds targeted to miRNAs were tested in triplicate, and ISIS 29848 was tested in up to six replicates. […] 100 μL of full growth medium was added to each well. Fifty hours after transfection, cells are transferred to 96-well plates coated with ECMa-trix™ (Chemicon Inter-national). Under these conditions, untreated HuVECs form tube-like structures.

ob/ob mice = assay: ob/ob mice: plasma parameters, food consumption, marker gene mRNA; type: in vivo, mouse; conditions: six week old ob/ob mice, 25 mg/kg twice weekly for four weeks
From the text: Leptin is a hormone produced by fat cells that regulates appetite. Deficiencies in this hormone in both humans and non-human animals leads to obesity. ob/ob mice have a mutation in the leptin gene which results in obesity and hyperglycemia. As such, these mice are a useful model for the investigation of obesity and diabetes and treatments designed to treat these conditions. ob/ob mice have higher circulating levels of insulin and are less hyperglycemic than db/db mice, which harbor a mutation in the leptin receptor. In accordance with the present invention, the oligomeric compounds of the invention are tested in the ob/ob model of obesity and diabetes.
Seven-week old male C57B1/6J-Lep ob/ob mice (Jackson Laboratory, Bar Harbor, Me.) are fed a diet with a fat content of 10-15% and are subcutaneously injected with the oligomeric compounds of the invention or a control compound at a dose of 25 mg/kg two times per week for 4 weeks. Saline-injected animals, leptin wildtype littermates (i.e. lean littermates) and ob/ob mice fed a standard rodent diet serve as controls. After the treatment period, mice are sacrificed and target levels are evaluated in liver, brown adipose tissue (BAT) and white adipose tissue (WAT). RNA isolation and target RNA expression level quantitation are performed as described by other examples herein.
To assess the physiological effects resulting from modulation of target, the ob/ob mice are evaluated at the end of the treatment period for serum lipids, serum free fatty acids, serum cholesterol (CHOL), liver triglycerides, fat tissue triglycerides and liver enzyme levels. Hepatic steatosis, or clearing of lipids from the liver, is assessed by measuring the liver triglyceride content. Hepatic steatosis is assessed by routine histological analysis of frozen liver tissue sections stained with oil red O stain, which is commonly used to visualize lipid deposits, and counterstained with hematoxylin and eosin, to visualize nuclei and cytoplasm, respectively.
The effects of target modulation on glucose and insulin metabolism are evaluated in the ob/ob mice treated with the oligomeric compounds of the invention. Plasma glucose is measured at the start of the treatment and after 2 weeks and 4 weeks of treatment. Plasma insulin is similarly measured at the beginning of the treatment, and following at 2 weeks and at 4 weeks of treatment. Glucose and insulin tolerance tests are also administered in fed and fasted mice. Mice receive intraperitoneal injections of either glucose or insulin, and the blood glucose and insulin levels are measured before the insulin or glucose challenge and at 15, 20 or 30 minute intervals for up to 3 hours.
The ob/ob mice that receive treatment are evaluated at the end of the treatment period for the effects of target modulation on the expression of genes that participate in lipid metabolism, cholesterol biosynthesis, fatty acid oxidation, fatty acid storage, gluconeogenesis and glucose metabolism. These genes include, but are not limited to, HMG-CoA reductase, acetyl-CoA carboxylase 1 and acetyl-CoA carboxylase 2, camitine palmitoyltransferase I and glycogen phosphorylase, glucose-6-phosphatase and phosphoenolpyruvate carboxykinase 1, lipoprotein lipase and hormone sensitive lipase. mRNA levels in liver and white and brown adipose tissue are quantitated by real-time PCR as described in other examples herein, employing primer/probe sets that are generated using published sequences of each gene of interest.
As described herein, leptin-deficient (ob/ob) mice, leptin receptor-deficient (db/db) mice and diet-induced obesity (DIO) mice are used to model obesity and diabetes. In accordance with the present invention, oligomeric compounds targeting mir-143, mir-131 (also known as mir-9) and mir-203 were tested in the ob/ob and db/db models. […]

T47D cells = assay: Caspase-3 activity assay (apoptosis) in T47D cells; conditions: caspase assay, 200 nM; conclusion from Tables 9-12
PEPCK-c = PEPCK-c mRNA expression in HepG2 cells; type: cell-based, human; conditions: 100 nM; for reduction of PEPCK-c mRNA expression: HepG2, 1 nM insulin
leptin = assay: Leptin secretion by adipocytes (ELISA); type: cell-based, human; conditions: preadipocytes, 250 nM, day nine
Description: Leptin secretion into the medium in which adipocytes are cultured is measured by protein ELISA. On day nine post-transfection, 96-well plates are coated with a monoclonal antibody to human leptin (R&D Systems, Minneapolis, Minn.) and left at 4° C. overnight. The plates are blocked with bovine serum albumin (BSA), and a dilution of the treated adipoctye medium is incubated in the plate at room temperature for approximately 2 hours. After washing to remove unbound components, a second monoclonal antibody to human leptin (conjugated with biotin) is added. The plate is then incubated with strepavidin-conjugated horse radish peroxidase (HRP) and enzyme levels are determined by incubation with 3, 3′,5,5′-tetramethlybenzidine, which turns blue when cleaved by HRP. The OD450 is read for each well, where the dye absorbance is proportional to the leptin concentration in the cell lysate.
Leptin is also a marker for differentiated adipocytes. In the adipocyte assay, leptin secretion into the media above the differentiated adipocytes was measured by protein ELISA. Cell growth, transfection and differentiation procedures were carried out as described for the Triglyceride accumulation assay (see below). On day nine post-transfection, 96-well plates were coated with a monoclonal antibody to human leptin (R&D Systems, Minneapolis, Minn.) and left at 4° C. overnight. The plates were blocked with bovine serum albumin (BSA), and a dilution of the media was incubated in the plate at RT for 2 hours. After washing to remove unbound components, a second monoclonal antibody to human leptin (conjugated with biotin) was added. The plate was then incubated with strepavidin-conjugated horseradish peroxidase (HRP) and enzyme levels are determined by incubation with 3, 3′, 5,5′-Tetramethlybenzidine, which turns blue when cleaved by HRP. The OD450 was read for each well, where the dye absorbance is proportional to the leptin concentration in the cell lysate. Results are expressed as a percent±standard deviation relative to transfectant-only controls.

adipocytes = assay: Triglyceride accumulation assay in adipocytes; type: cell-based, human; conditions: preadipocytes, 250 nM, day nine

Substance: 328075 (antisense GCTTCACAGCTTCCAGTCGA; all 2'-MOE, all phosphorothioate, methylation of C not given here) [compound 328075]
- percent control luciferase expression (mir-30a pri-miRNA): 55 percent control

Substance: 328076 (antisense eG*e[5mC]*eT*eT*e[5mC]*dA*d[5mC]*dA*dG*d[5mC]*dT*dT*d[5mC]*d[5mC]*dA*eG*eT*e[5mC]*eG*eA) [compound 328076]
- percent control luciferase expression (mir-30a pri-miRNA): 57 percent control

Substance: 328077 (antisense CCCATCTGTGGCTTCACAGC; all 2'-MOE, all phosphorothioate, methylation of C not given here) [compound 328077]
- percent control luciferase expression (mir-30a pri-miRNA): 70 percent control

Substance: 328078 (antisense e[5mC]*e[5mC]*e[5mC]*eA*eT*d[5mC]*dT*dG*dT*dG*dG*d[5mC]*dT*dT*d[5mC]*eA*e[5mC]*eA*eG*e[5mC]) [compound 328078]
- percent control luciferase expression (mir-30a pri-miRNA): 63 percent control

Substance: 328080 (antisense TGAAAGCCCATCTGTGGCTT; all 2'-MOE, all phosphorothioate, methylation of C not given here) [compound 328080]
- percent control luciferase expression (mir-30a pri-miRNA): 72 percent control

Substance: 328081 (antisense eT*eG*eA*eA*eA*dG*d[5mC]*d[5mC]*d[5mC]*dA*dT*d[5mC]*dT*dG*dT*eG*eG*e[5mC]*eT*eT) [compound 328081]
- percent control luciferase expression (mir-30a pri-miRNA): 80 percent control

Substance: ACAGGCCGGGACAAGTGCAATA (anti-miR; chemistry not fully specified) [ISIS 327897, uniform 2′-MOE PS; targets mir-92-1]
- expression of the IGFBP-1 and follistatin marker genes (HepG2 cells; HepG2, basal (no insulin)): increased expression of the IGFBP-1 and follistatin marker genes
- 5 markers of adipocyte differentiation ([1]; differentiating adipocytes, % of UTC (Table 75)): significant reduction in expression of 4 of the 5 markers of differentiation

Substance: CAGCCGCTGTCACACGCACAG (anti-miR; chemistry not fully specified) [ISIS 327959, uniform 2′-MOE PS; targets mir-210]
- tube formation (HuVECs): suppressed tube formation
- IGFBP-1 and PEPCK-c marker genes (HepG2 cells; HepG2, basal (no insulin)): increases in the IGFBP-1 and PEPCK-c marker genes

Substance: GAAACCCAGCAGACAATGTAGCT (anti-miR; chemistry not fully specified) [ISIS 345384, PS 2′-MOE 5-10-8 gapmer; targets mir-221]
- plasma glucose levels in the fed state (ob/ob mice): reductions in plasma glucose levels in the fed state at weeks two and four

Substance: ISIS 328377: 5-10-5 2′-MOE gapmer PS; targets hypothetical miRNA-030 pri-miRNA (eT*e[5mC]*eA*e[5mC]*eT*d[5mC]*d[5mC]*dT*dA*dA*dA*dG*dG*dT*dT*e[5mC]*eA*eA*eG*eT)
- apoptosis in T47D cells (T47D cells): prevent or have a protective effect from apoptosis
- expression of the IGFBP-1, PEPCK-c and follistatin marker genes (HepG2 cells): increased expression of the IGFBP-1, PEPCK-c and follistatin marker genes

Substance: ISIS 328761: oligomeric compound targeting hypothetical mir-138 (antisense eG*e[5mC]*eA*eG*eG*d[5mC]*dT*dA*dA*dA*dA*dG*dA*dA*dA*eT*eA*eA*eG*e[5mC])
- reduction of PEPCK-c mRNA expression (PEPCK-c): 45%
- decrease in PEPCK-c mRNA (PEPCK-c; HepG2, basal (no insulin)): 52%
- mRNA levels of the IGFBP-1 and follistatin genes (HepG2 cells): also reduced

Substance: ISIS 328765: oligomeric compound targeting mir-215 (antisense eG*eA*e[5mC]*eA*eA*dA*d[5mC]*dT*d[5mC]*dA*dG*d[5mC]*dT*dA*dT*eA*eT*eT*eG*eT)
- reduction of PEPCK-c mRNA expression (PEPCK-c): 27%
- mRNA levels of the IGFBP-1 and follistatin genes (HepG2 cells): also reduced

Substance: TAGCTGGTTGAAGGGGACCAA (anti-miR; chemistry not fully specified) [ISIS 327925, uniform 2′-MOE PS; targets mir-133b]
- tube formation (HuVECs): suppressed tube formation
- expression of the IGFBP-1, PEPCK-c and follistatin marker genes (HepG2 cells): increased expression of the IGFBP-1, PEPCK-c and follistatin marker genes

Substance: TCACAAGTTAGGGTCTCAGGGA [ISIS 327939]
- Leptin (secretion) (leptin): significant increase in leptin secretion
- triglyceride accumulation (adipocytes): decrease in triglyeride accumulation
- expression of the IGFBP-1, PEPCK-c and follistatin marker genes (HepG2 cells): increased expression of the IGFBP-1, PEPCK-c and follistatin marker genes
- expression of the four adipocyte differentiation hallmark genes ([1]; preadipocytes, 250 nM, day nine): decrease in the expression of all four adipocyte differentiation hallmark genes
